In ChEMBL document CHEMBL5331073, “Discovery of novel 7,7-dimethyl-6,7-dihydro-5H-pyrrolo[3,4-d]pyrimidines as ATR inhibitors based on structure-based drug design” (Eur J Med Chem, 2023):

Legend:
in vitro [1] = conditions: human, liver microsomes
HT-29 [2] = assay: Antiproliferative activity against ATM-proficient human HT-29 cells assessed as reduction in cell proliferation incubated for 3 days by MTT assay; type: functional, cell-based; conditions: HT-29, 72 h
in vitro [3] = conditions: rat, liver microsomes
in vitro [4] = conditions: rat, liver microsomes; remark: listed apart in the source
[5] = MRT(t) in Sprague-Dawley rat at 5 mg/kg, po and measured upto 24 hrs by LC-MS analysis; type: ADME, organism-based; conditions: in vivo
[6] = biological target: T1, Serine/threonine-protein kinase ATR (Homo sapiens, UniProt Q13535); assay: Inhibition of ATR (unknown origin) using peptide as substrate preincubated for 10 mins followed by substrate addition by microplate reader analysis
Target sequence in this assay (Q13535 whole entry): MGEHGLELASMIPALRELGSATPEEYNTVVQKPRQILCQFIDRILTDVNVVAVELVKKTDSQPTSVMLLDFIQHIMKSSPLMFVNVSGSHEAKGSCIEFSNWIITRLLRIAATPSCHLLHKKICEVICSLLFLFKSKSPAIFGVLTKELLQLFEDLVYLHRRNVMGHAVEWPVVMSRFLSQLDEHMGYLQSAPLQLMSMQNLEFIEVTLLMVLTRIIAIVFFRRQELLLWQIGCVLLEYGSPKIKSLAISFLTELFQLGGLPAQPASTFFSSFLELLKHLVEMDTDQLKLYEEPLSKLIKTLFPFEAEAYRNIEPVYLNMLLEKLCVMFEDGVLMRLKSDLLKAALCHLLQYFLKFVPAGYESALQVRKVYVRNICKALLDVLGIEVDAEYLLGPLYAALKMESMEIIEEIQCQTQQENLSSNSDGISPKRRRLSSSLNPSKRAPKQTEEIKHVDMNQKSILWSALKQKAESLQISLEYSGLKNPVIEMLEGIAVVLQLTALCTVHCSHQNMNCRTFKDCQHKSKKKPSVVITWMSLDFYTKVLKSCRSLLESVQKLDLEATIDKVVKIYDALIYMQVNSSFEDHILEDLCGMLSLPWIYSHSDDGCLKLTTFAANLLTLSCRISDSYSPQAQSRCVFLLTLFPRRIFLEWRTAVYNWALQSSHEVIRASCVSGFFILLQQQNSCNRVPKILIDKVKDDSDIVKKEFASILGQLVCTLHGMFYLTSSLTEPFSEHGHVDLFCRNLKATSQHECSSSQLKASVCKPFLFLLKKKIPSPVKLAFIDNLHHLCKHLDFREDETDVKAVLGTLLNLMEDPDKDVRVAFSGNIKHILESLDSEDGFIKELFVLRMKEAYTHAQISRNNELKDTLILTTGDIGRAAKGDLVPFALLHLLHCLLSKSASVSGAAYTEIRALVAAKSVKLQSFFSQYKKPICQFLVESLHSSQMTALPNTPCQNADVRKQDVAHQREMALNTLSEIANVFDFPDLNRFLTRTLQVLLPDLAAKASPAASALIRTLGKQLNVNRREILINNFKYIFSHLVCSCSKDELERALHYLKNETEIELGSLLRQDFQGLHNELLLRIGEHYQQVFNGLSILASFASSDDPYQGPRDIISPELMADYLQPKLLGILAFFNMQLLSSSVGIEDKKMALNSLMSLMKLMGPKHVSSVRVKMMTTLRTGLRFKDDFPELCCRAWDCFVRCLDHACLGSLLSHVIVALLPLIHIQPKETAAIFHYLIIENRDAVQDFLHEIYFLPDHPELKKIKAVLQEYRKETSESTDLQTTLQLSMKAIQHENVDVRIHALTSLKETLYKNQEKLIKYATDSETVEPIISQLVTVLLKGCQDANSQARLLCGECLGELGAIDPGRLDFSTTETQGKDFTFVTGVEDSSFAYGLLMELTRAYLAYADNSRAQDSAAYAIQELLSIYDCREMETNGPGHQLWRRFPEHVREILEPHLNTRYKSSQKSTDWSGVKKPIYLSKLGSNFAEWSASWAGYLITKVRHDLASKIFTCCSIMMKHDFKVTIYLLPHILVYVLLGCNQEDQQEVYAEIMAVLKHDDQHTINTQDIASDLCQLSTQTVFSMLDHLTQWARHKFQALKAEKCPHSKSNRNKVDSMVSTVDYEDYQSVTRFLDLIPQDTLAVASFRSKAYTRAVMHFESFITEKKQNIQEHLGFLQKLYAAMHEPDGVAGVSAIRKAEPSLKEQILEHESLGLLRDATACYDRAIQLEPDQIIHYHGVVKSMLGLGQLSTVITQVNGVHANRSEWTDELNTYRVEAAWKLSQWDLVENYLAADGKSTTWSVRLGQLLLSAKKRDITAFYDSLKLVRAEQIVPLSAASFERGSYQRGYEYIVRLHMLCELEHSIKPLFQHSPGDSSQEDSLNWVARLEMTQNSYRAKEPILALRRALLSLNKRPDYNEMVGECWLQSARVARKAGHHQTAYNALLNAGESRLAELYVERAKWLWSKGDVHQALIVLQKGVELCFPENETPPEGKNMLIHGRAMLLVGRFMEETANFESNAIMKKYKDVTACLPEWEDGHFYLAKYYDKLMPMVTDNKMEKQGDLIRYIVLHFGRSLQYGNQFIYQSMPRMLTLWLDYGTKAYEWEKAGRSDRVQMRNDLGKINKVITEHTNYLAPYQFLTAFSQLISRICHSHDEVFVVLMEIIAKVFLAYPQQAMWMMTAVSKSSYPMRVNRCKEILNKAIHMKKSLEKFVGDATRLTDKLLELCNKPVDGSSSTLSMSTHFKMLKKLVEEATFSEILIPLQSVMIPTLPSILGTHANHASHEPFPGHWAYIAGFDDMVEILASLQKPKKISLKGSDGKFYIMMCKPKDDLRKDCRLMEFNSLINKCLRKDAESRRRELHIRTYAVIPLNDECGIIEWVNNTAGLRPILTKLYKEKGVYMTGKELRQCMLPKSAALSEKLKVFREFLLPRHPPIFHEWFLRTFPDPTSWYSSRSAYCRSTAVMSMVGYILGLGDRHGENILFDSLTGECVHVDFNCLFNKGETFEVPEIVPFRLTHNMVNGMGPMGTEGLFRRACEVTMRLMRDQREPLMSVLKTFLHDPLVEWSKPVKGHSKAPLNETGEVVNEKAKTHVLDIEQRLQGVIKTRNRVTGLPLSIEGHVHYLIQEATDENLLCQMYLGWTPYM

in vitro [7] = conditions: human, liver microsomes; remark: listed apart in the source
[8] = Cmax in Sprague-Dawley rat at 5 mg/kg, po and measured upto 24 hrs by LC-MS analysis; type: ADME, organism-based; set-up: time < 24 hrs, dose 5 mg/kg, route po; conditions: in vivo
[9] = MRT (0 to infinity) in Sprague-Dawley rat at 1 mg/kg, iv and measured upto 24 hrs by LC-MS analysis; type: ADME, organism-based; conditions: in vivo
LoVo [10] = assay: Antiproliferative activity against ATM-deficient human LoVo cells assessed as reduction in cell proliferation incubated for 3 days by MTT assay; type: functional, cell-based; conditions: 72 h
[11] = Clearance in Sprague-Dawley rat at 1 mg/kg, iv and measured upto 24 hrs by LC-MS analysis; type: ADME, organism-based; conditions: in vivo
[12] = MRT (0 to infinity) in Sprague-Dawley rat at 5 mg/kg, po and measured upto 24 hrs by LC-MS analysis; type: ADME, organism-based; conditions: in vivo
[13] = Half life in Sprague-Dawley rat at 1 mg/kg, iv and measured upto 24 hrs by LC-MS analysis; type: ADME, organism-based; conditions: in vivo
in vitro [14] = conditions: human, liver microsomes; remark: listed apart in the source
[15] = AUC (0 to infinity) in Sprague-Dawley rat at 5 mg/kg, po and measured upto 24 hrs by LC-MS analysis; type: ADME, organism-based; set-up: time < 24 hrs, dose 5 mg/kg, route po; conditions: in vivo
[16] = MRT(t) in Sprague-Dawley rat at 1 mg/kg, iv and measured upto 24 hrs by LC-MS analysis; type: ADME, organism-based; conditions: in vivo
[17] = Half life in Sprague-Dawley rat at 5 mg/kg, po and measured upto 24 hrs by LC-MS analysis; type: ADME, organism-based; conditions: in vivo
[18] = AUCt in Sprague-Dawley rat at 1 mg/kg, iv and measured upto 24 hrs by LC-MS analysis; type: ADME, organism-based; set-up: dose 1 mg/kg, time < 24 hrs, route iv; conditions: in vivo
[19] = AUC(0 to infinity) in Sprague-Dawley rat at 1 mg/kg, iv and measured upto 24 hrs by LC-MS analysis; type: ADME, organism-based; set-up: time < 24 hrs, dose 1 mg/kg, route iv; conditions: in vivo
[20] = Oral bioavailability in Sprague-Dawley rat at 5 mg/kg and measured upto 24 hrs by LC-MS analysis; type: ADME, organism-based; conditions: in vivo
in vitro [21] = conditions: rat, liver microsomes; remark: listed apart in the source
[22] = Tmax in Sprague-Dawley rat at 5 mg/kg, po and measured upto 24 hrs by LC-MS analysis; type: ADME, organism-based; conditions: in vivo
[23] = Volume of distribution at steady state in Sprague-Dawley rat at 1 mg/kg, iv and measured upto 24 hrs by LC-MS analysis; type: ADME, organism-based; conditions: in vivo, read-out: Vdss
[24] = AUCt in Sprague-Dawley rat at 5 mg/kg, po and measured upto 24 hrs by LC-MS analysis; type: ADME, organism-based; set-up: time < 24 hrs, dose 5 mg/kg, route po; conditions: in vivo
LoVo [25] = assay: Antiproliferative activity against ATM-deficient human LoVo cells assessed as reduction in cell proliferation at 0.1 to 25 uM incubated for 3 days by MTT assay; type: functional, cell-based; conditions: dose 0.1-25 µM, time 3.0 day
HT-29 [26] = assay: Antiproliferative activity against ATM-proficient human HT-29 cells assessed as reduction in cell proliferation at 0.5 to 22 uM incubated for 3 days by MTT assay; type: functional, cell-based; conditions: dose 0.5-22 µM, time 3.0 day
[27] = biological target: T1, Serine/threonine-protein kinase ATR; assay: Inhibition of ATR (unknown origin) using peptide as substrate at 0.1 uM preincubated for 10 mins followed by substrate addition by microplate reader analysis
Target sequence in this assay (Q13535 whole entry, looked up): as the sequence (Q13535 whole entry) above

MCF7 = assay: Antiproliferative activity against human MCF7 cells assessed as reduction in cell viability incubated for 3 days by MTT assay; type: functional, cell-based; conditions: MCF7, 72 h
MDA-MB-231 = assay: Antiproliferative activity against human MDA-MB-231 cells assessed as reduction in cell viability incubated for 3 days by MTT assay; type: functional, cell-based; conditions: MDA-MB-231, 72 h
[28] = biological target: Serine/threonine-protein kinase mTOR (Homo sapiens, UniProt P42345); assay: Inhibition of mTOR (unknown origin) using peptide as substrate preincubated for 10 mins followed by substrate addition by microplate reader analysis

Structure (SMILES)	microsomal CLint at 1 h, 1 µM (in vitro [1]) [µL/min/mg]	IC50 (HT-29 [2]) [nM]	CLint scaled at 1 h, 1 µM (in vitro [3]) [mL/min/kg]	half-life at 1 h, 1 µM (in vitro [4]) [h]	MRT last at 24 h [5] [h]	IC50 [6] [nM]	half-life at 1 h, 1 µM (in vitro [7]) [h]	Cmax [8] [ng/mL]	MRT inf [9] [h]	IC50 (LoVo [10]) [nM]	clearance [11] [mL/min/kg]	MRT inf [12] [h]	half-life [13] [h]	CLint scaled at 1 h, 1 µM (in vitro [14]) [mL/min/kg]	AUC(0-inf) [15] [ng·h/mL]	MRT last at 24 h [16] [h]	half-life [17] [h]	AUC(0-t) at 24 h [18] [ng·h/mL]	AUC(0-inf) [19] [ng·h/mL]	microsomal CLint at 1 h, 1 µM (in vitro [21]) [µL/min/mg]	other results
COc1ccc(C(=O)N2Cc3c(N4CCOC[C@H]4C)nc(-c4cccc5[nH]ccc45)nc3C2(C)C)cc1	147	387	138	0.302	7.08	3	0.158	83.1	3.3	128	11.3	11.3	3.02	139	729	2.99	10	1440	1470	76.6	bioavailability [20]: 6.3%; Tmax [22]: 1 h; Vd [23]: 2.23 L/kg; AUC(0-t) at 24 h [24]: 452 ng·h/mL
C[C@@H]1COCCN1c1nc(-c2cccc3[nH]ccc23)nc2c1CN(C(=O)c1ccc(S(C)(=O)=O)cc1)C2(C)C	53.9	449	12.7	3.28	5.56	4	0.428	24.1	6.99	92	26	7.1	5.49	50.9	203	5.21	4.38	603	646	7.06	Activity (LoVo [25]): Dose-Dependent Effect; Activity (HT-29 [26]): Dose-Dependent Effect; bioavailability [20]: 6.1%; Tmax [22]: 2 h; Vd [23]: 10.8 L/kg; AUC(0-t) at 24 h [24]: 185 ng·h/mL
C[C@@H]1COCCN1c1nc(-c2cccc3[nH]ccc23)nc2c1CCNC2(C)C																					inhibition [27]: 70.7%
CC(=O)c1ccc(C(=O)N2Cc3c(N4CCOC[C@H]4C)nc(-c4cccc5[nH]ccc45)nc3C2(C)C)cc1	281	307	51.4	0.812		6	0.0823			96				265						28.5	Activity (LoVo [25]): Dose-Dependent Effect; Activity (HT-29 [26]): Dose-Dependent Effect
O=C(c1cc(Cc2n[nH]c(=O)c3ccccc23)ccc1F)N1CCN(C(=O)C2CC2)CC1 [OLAPARIB]																					IC50 (MCF7): 18600 nM; IC50 (MDA-MB-231): 73300 nM
CC(=O)N1CCc2c(N3CCOC[C@H]3C)nc(-c3cccc4[nH]ccc34)nc2C1(C)C	123	4610	110	0.378		13	0.188			1260				116						61.4	inhibition [27]: 89.9%; IC50 [28]: 13 nM
